Source: BindingDB's records for doi:10.1016/S0960-894X(01)80381-4 (n/a, 1994)

Experiment: Inhibition of 10 uM ADP-induced human gel filtered platelet aggregation with 0.1 mg/mL human fibrinogen

## O=C(O)CCNC(=O)c1cccc(C(=O)NCC2CCNCC2)c1 [3-{3-[(Piperidin-4-ylmethyl)-carbamoyl]-benzoylamino}-propionic acid]
  IC50: 330 µM

## O=C(O)CCNC(=O)c1ccc2c(c1)C(=O)C(CCC1CCNCC1)C2 (centres undefined) [3-{[3-Oxo-2-(2-piperidin-4-yl-ethyl)-indane-5-carbonyl]-amino}-propionic acid]
  IC50: 2300 µM

## O=C(O)CCN1Cc2ccc(C(=O)NCCC3CCNCC3)cc2C1=O [3-[1-Oxo-6-(2-piperidin-4-yl-ethylcarbamoyl)-1,3-dihydro-isoindol-2-yl]-propionic acid]
  IC50: 10000 µM

## O=C(O)CCNC(=O)c1ccc2c(c1)C(=O)N(CCC1CCNCC1)C2 [3-{[3-Oxo-2-(2-piperidin-4-yl-ethyl)-2,3-dihydro-1H-isoindole-5-carbonyl]-amino}-propionic acid(L-709780)]
  IC50: 25 µM
